These results are taken from patent US12576167B2, “Gadolinium-based compound, method for producing same, and MRI contrast agent containing same” (KYUNGPOOK NATIONAL UNIVERSITY INDUSTRY-ACADEMIC COOPERATION …, priority 2020, dated 2026).

Structures are written as SMILES.

In data set [1] the target is amyloid beta polymer (oligomeric Aβ) (Homo sapiens, UniProt P05067). The experiment in a line: Phantom test for targeting ability toward amyloid beta polymer, 9.4 T MR. The settings on record: amyloid beta polymer incubated with contrast agent at 37° C. for 24 hours, washed pellet, FIG. 7. The data set is classed as binding. How it is done: HFIP (221.5 μl) was added to amyloid beta (1 mg, 1 mM) to produce a mixture which in turn was shaken for 1 hour at room temperature using a shaker to remove preaggregation. Next, the amyloid beta from which the pre-aggregation was removed was dried. Then, DMSO (221.5 μl) was added thereto to adjust a concentration thereof to 1 mM. Then, a suspension thereof was produced using a mixer and a sonicator, and PBS (1×, pH 7.4, 878.5 μl) was added to the suspension to adjust a concentration of the suspension to 0.2 mM. Thereafter, the suspension was subjected to incubation for 4 days at 37° C. using a shaker. Then, amyloid beta polymer (oligomeric Aβ) that has been polymerized was dispensed by 200 μl. Then, a further mixed solution in which the compound Gd-DO3A-Ga was dissolved in PBS at a concentration of 2 mM was added thereto at 20 μl amount. A further mixed solution in which the commercial contrast agent (Gadovist®) was dissolved in PBS at a concentration of 2 mM was added thereto at 20 μl amount. Then, each of two resulting mixtures was incubated at 37° C. for 24 hours using a shaker. After completion of the incubation, a supernatant was removed therefrom via centrifugation, and then the amyloid beta polymer was washed with PBS, and then 200 μl of PBS:DMSO=9:1 solution was added to a pellet thereof to prepare MRI phantom samples. […]

Data set [2] can be described thus: Measurement of relaxivity (r1, r2), phantom in 3 T MRI. The settings on record: 0.0625-1 mM in tertiary distilled water, linear regression, in mM-1 s-1 (unit assumed). It is filed as physicochemical. As to the method:
Relaxivity (r1, r2) of each of Gd-DO3A-Ga synthesized using the method according to Present Example 2, and Gadovist® and Dotarem® as commercial cyclic contrast agents as comparative groups.
Specifically, a phantom was prepared by diluting the gadolinium complex to 5 concentrations (0.0625, 0.125, 0.25, 0.5, 1 mM) using tertiary distilled water, and then T1 and T2 relaxation times thereof were measured in 3 T MRI. Thus, R (relaxivity=1/T) thereof at each of the concentrations was calculated and a result of the relaxivity of the gadolinium complex was obtained via linear regression analysis. (See following Table 1 and FIG. 5)

amyloid beta polymer (oligomeric Aβ), sequence (P05067 672-713 limits assumed): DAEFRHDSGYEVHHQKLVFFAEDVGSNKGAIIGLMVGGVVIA

Turning to `O=C([O-])CN1CCN(CC(=O)[O-])CCN([C@H](CO)[C@H](O)CO)CCN(CC(=O)[O-])CC1.[Gd+3]` (racemic) [Gadovist ®], the “MR signal intensity (contrast enhancement effect) of phantom versus control incubated only with amyloid beta polymer” value in data set [1] was “no significant difference”. Besides, in data set [2], the “relaxivity r1” value was determined as 3.85 ± 0.09 and the “relaxivity r2” value was 4.87 ± 0.11.

As to `CNC[C@H](O)[C@@H](O)[C@H](O)[C@H](O)CO.O=C([O-])CN1CCN(CC(=O)[O-])CCN(CC(=O)O)CCN(CC(=O)[O-])CC1.[Gd+3]` [Dotarem ®], in data set [2], the “relaxivity r1” value is 3.40 ± 0.07 and the “relaxivity r2” value is 3.88 ± 0.16.
